Reference: ChEMBL document CHEMBL1122390, “2-benzazepines. 5. Synthesis of pyrimido[5,4-d][2]benzazepines and their evaluation as anxiolytic agents” (J Med Chem, 1983)

How the values were obtained:
[1] = target: GABA-A receptor; anion channel; experiment: Binding affinity measured by [3H]diazepam binding assay in rat
[2] = test system: Mus musculus; experiment: Effective dose required for anxiolytic activity in mice when administered perorally (Inclined screen test); format: functional; settings: po
[3] = test system: Mus musculus; experiment: Effective dose required for anxiolytic activity in mice when administered perorally (Antipentylene tetrazole test); format: functional; settings: po
[4] = test system: Mus musculus; experiment: Effective dose required for anxiolytic activity in mice when administered perorally (Rotarod test); format: functional; settings: po
[5] = test system: Felis catus; experiment: Minimum effective dose required for drug induced ataxia (observable symptomatology) in cat when administered perorally.; format: functional; settings: po, read-out: MED
[6] = test system: Monkey; experiment: Minimum effective dose required for anticonflict effect in monkey when administered perorally; format: functional; settings: Cercopithecidae, in Primates, po; read-out: MED
[7] = test system: Mus musculus; experiment: (§1) Effective dose required for ethanol interaction in mouse when administered perorally; format: functional; settings: po
[8] = test system: Rattus norvegicus; experiment: Lowest dose required for depressant effect (significant decrease in unpunished responding) in rat when administered perorally; format: functional
[9] = test system: Monkey; experiment: Highest dose required for depressant effect when administered perorally; format: functional, Cercopithecidae
[10] = test system: Rattus norvegicus; experiment: Minimum effective dose required for anticonflict effect in rat when administered perorally; format: functional; settings: po, read-out: MED
[11] = test system: Mus musculus; experiment: Effective dose required for anxiolytic activity in mice when administered perorally ( Rotarod test); format: functional; settings: po
[12] = test system: Mus musculus; experiment: as §1; settings: po
[13] = test system: Felis catus; experiment: Minimum effective dose required for drug induced ataxia (observable symptomatology) in cat when administered perorally; format: functional; settings: po, read-out: MED

SMILES	IC50 [1]	ED50 [2]	ED50 [3]	ED50 [4]	other results
Cc1ncc2c(n1)-c1ccc(Cl)cc1C(c1ccccc1Cl)=[N+]([O-])C2	15 nM	> 400 mg/kg	0.72 mg/kg	6.3 mg/kg	–
Nc1ncc2c(n1)-c1ccccc1C(c1ccccc1)=NC2	60 nM	–	17 mg/kg	–	–
Cc1ncc2c(n1)-c1ccc(Cl)cc1C(c1ccccc1Cl)N(C)C2 (stereo not drawn)	25 nM	> 400 mg/kg	7.7 mg/kg	74 mg/kg	–
Nc1ncc2c(n1)-c1ccc(Cl)cc1C(c1ccccc1Cl)=NC2	2.6 nM	> 400 mg/kg	0.07 mg/kg	1.4 mg/kg	–
Fc1ccccc1C1=NCc2cnc(Cl)nc2-c2ccc(Cl)cc21	5.3 nM	> 400 mg/kg	4.7 mg/kg	24 mg/kg	–
CC1=NCC2CNC(c3ccccc3Cl)c3cc(Cl)ccc3C2=N1 (stereo not drawn)	140 nM	200 mg/kg	34 mg/kg	109 mg/kg	–
CNC(=O)Cc1ncc2c(n1)-c1ccc(Cl)cc1C(c1ccccc1F)=NC2	7.6 nM	> 400 mg/kg	2.3 mg/kg	4 mg/kg	–
[O-][N+]1=C(c2ccccc2F)c2cc(Cl)ccc2-c2nc(S)ncc2C1	490 nM	> 400 mg/kg	> 100 mg/kg	> 200 mg/kg	–
Cc1nc2c(c[n+]1[O-])C[N+]([O-])=C(c1ccccc1Cl)c1cc(Cl)ccc1-2	31 nM	240 mg/kg	2.7 mg/kg	5.6 mg/kg	–
Cc1ncc2c(n1)-c1ccc(Cl)cc1C(c1ccccc1Cl)NC2 (stereo not drawn)	30 nM	> 400 mg/kg	2.3 mg/kg	18 mg/kg	–
[O-][N+]1=C(c2ccccc2Cl)c2cc(Cl)ccc2-c2ncncc2C1	39 nM	141 mg/kg	0.87 mg/kg	4.9 mg/kg	–
CNc1ncc2c(n1)-c1ccc(Cl)cc1C(c1ccccc1F)=NC2	2.8 nM	> 400 mg/kg	0.58 mg/kg	4 mg/kg	–
Cc1ncc2c(n1)-c1ccccc1C(c1ccccc1)=NC2	54 nM	–	84 mg/kg	200 mg/kg	–
Nc1ncc2c(n1)-c1ccc(Cl)cc1C(c1ccccc1F)=[N+]([O-])C2	38 nM	–	–	–	–
Fc1ccccc1C1=NCc2cncnc2-c2ccc(Cl)cc21	3.4 nM	> 400 mg/kg	0.37 mg/kg	0.8 mg/kg	–
CN1CCN(c2ncc3c(n2)-c2ccc(Cl)cc2C(c2ccccc2F)=NC3)CC1	7.1 nM	> 400 mg/kg	1.2 mg/kg	16 mg/kg	–
CN(C)CCCNc1ncc2c(n1)-c1ccc(Cl)cc1C(c1ccccc1F)=NC2	2.3 nM	187 mg/kg	1.6 mg/kg	16 mg/kg	–

SMILES	IC50 [1]	ED50 [2]	ED50 [3]	ED50 [4]	other results
CSc1ncc2c(n1)-c1ccc(Cl)cc1C(c1ccccc1Cl)=NC2	18.5 nM	> 400 mg/kg	13 mg/kg	33 mg/kg	–
Clc1ccc2c(c1)C(c1ccccc1Cl)NCc1cncnc1-2 (stereo not drawn)	54 nM	> 400 mg/kg	6.9 mg/kg	22 mg/kg	–
Cc1ncc2c(n1)-c1ccc(Cl)cc1C(c1ccccc1F)=NC2	3.1 nM	> 400 mg/kg	6.6 mg/kg	7.8 mg/kg	–
Cc1ncc2c(n1)-c1ccc(Cl)cc1C(c1ccccc1)=NC2	17 nM	–	9.3 mg/kg	–	–
Clc1ccc2c(c1)C(c1ccccc1Cl)=NCc1cncnc1-2	2.8 nM	215 mg/kg	0.59 mg/kg	3.6 mg/kg	minimal effective dose [5]: 0.5 mg/kg; minimal effective dose [6]: 0.04 mg/kg; ED50 [7]: 2.2 mg/kg; DUR [8]: 2.5 mg/kg; HED [9]: 5 mg/kg; minimal effective dose [10]: 0.31 mg/kg
COc1ncc2c(n1)-c1ccc(Cl)cc1C(c1ccccc1F)=NC2	3.5 nM	> 400 mg/kg	2.6 mg/kg	9 mg/kg	–
[O-][N+]1=C(c2ccccc2F)c2cc(Cl)ccc2-c2ncncc2C1	41 nM	277 mg/kg	3.9 mg/kg	3.95 mg/kg	–
Nc1ncc2c(n1)-c1ccc(Cl)cc1C(c1ccccc1F)=NC2	2.8 nM	> 400 mg/kg	1.1 mg/kg	5.1 mg/kg	–
Oc1ncc2c(n1)-c1ccc(Cl)cc1C(c1ccccc1F)=NC2	9.6 nM	> 400 mg/kg	6.3 mg/kg	29 mg/kg	–
Sc1ncc2c(n1)-c1ccc(Cl)cc1C(c1ccccc1Cl)=NC2	270 nM	> 400 mg/kg	18 mg/kg	214 mg/kg	–
O=C(O)Cc1ncc2c(n1)-c1ccc(Cl)cc1C(c1ccccc1F)=NC2	9.6 nM	> 400 mg/kg	12 mg/kg	–	ED50 [11]: 30 mg/kg
CC(C)c1ncc2c(n1)-c1ccc(Cl)cc1C(c1ccccc1Cl)=NC2	25 nM	> 400 mg/kg	3.8 mg/kg	21 mg/kg	–
Nc1ncc2c(n1)-c1ccc(Cl)cc1C(c1ccccc1)=NC2	17 nM	> 400 mg/kg	4.9 mg/kg	19 mg/kg	–
Cc1ncc2c(n1)-c1ccc(Cl)cc1C(c1ccccc1Cl)=NC2	9.2 nM	> 400 mg/kg	0.74 mg/kg	7.2 mg/kg	–
CCOC(=O)Cc1ncc2c(n1)-c1ccc(Cl)cc1C(c1ccccc1F)=NC2	20 nM	–	13 mg/kg	> 200 mg/kg	–
CN(C)c1ncc2c(n1)-c1ccc(Cl)cc1C(c1ccccc1F)=NC2	8.2 nM	> 400 mg/kg	1.1 mg/kg	2.2 mg/kg	–
CN1C(=O)CN=C(c2ccccc2)c2cc(Cl)ccc21 [DIAZEPAM]	–	> 25 mg/kg	1.4 mg/kg	3.2 mg/kg	ED50 [12]: 0.97 mg/kg; minimal effective dose [6]: 0.31 mg/kg; minimal effective dose [13]: 0.2 mg/kg; DUR [8]: 20 mg/kg; HED [9]: 20 mg/kg; minimal effective dose [10]: 1.25 mg/kg
